Data as given in US20060189631A1, “Substituted imidazopyrimidines for the prevention and treatment of cancer” (LABORATORIOS S.A.L.V.A.T., S.A., priority 2003, published 2006).

Assays:
[1] = tested on: human colon adenocarcinoma cell lines (HCT-116); assay: Determination of cell proliferation inhibition (Sulforodamine B); format: cell-based; details: HCT-116, 48 hours treatment
Experimental: The inhibitory capacity of cell proliferation of the compounds was determined in two human colon adenocarcinoma cell lines (HCT-116) obtained at the ATCC (American Type Collection). The cells were seeded in 96-well plates and kept at 37° C. in a CO2 heater for 24 hours to allow cell-substrate-adhesion. Subsequently, cells were treated with the products under study at concentrations comprised between 1 and 100 μM for 48 hours. After the treatment period, the medium was removed and cells were dyed with Sulforodamine B. Finally, decolouration of the dyed cells was carried out with Tris base 10 mM and the plates were read at 493-530 nm in a plate reader. IC50 was calculated as the product concentration inducing a growth inhibition of the 50% compared with control cells not treated.

[2] = tested on: human colon cancer cell lines HCT-116; assay: Determination of apoptosis (DNA fragmentation into nucleosomes, Cell Death Detection ELISA PLUS); format: cell-based; details: HCT-116, at 10 μM
Experimental: To stablish whether the antiproliferative activity of the compounds of the present invention is due to an apoptotic process, and not merely to a necrotic process, the generation of DNA fragments associated to histones (mono- and oligonucleosomes) was determined after incubation of the human colon cancer cell lines HCT-116 with the compounds of the present invention at different concentrations. DNA fragmentation into nucleosomes, which is an indicator of apoptosis phenomena, was quantified by a sandwich immunoassay using monoclonal antibodies directed against DNA and histones (Cell Death Detection ELISA^PLUS, Roche Diagnostics, cat #1920685). The quantity of fragmented DNA was expressed with the Enrichment Factor (EF) parameter, which is a coefficient of absorbance of nucleosomes liberated in the cytosol of the cells cultured in the presence of the products compared with control cells.

[3] = molecular target: T1, COX-2 (Homo sapiens, UniProt P35354); assay: COX-2 inhibition; format: biochemical
T1 sequence (P35354 18-604): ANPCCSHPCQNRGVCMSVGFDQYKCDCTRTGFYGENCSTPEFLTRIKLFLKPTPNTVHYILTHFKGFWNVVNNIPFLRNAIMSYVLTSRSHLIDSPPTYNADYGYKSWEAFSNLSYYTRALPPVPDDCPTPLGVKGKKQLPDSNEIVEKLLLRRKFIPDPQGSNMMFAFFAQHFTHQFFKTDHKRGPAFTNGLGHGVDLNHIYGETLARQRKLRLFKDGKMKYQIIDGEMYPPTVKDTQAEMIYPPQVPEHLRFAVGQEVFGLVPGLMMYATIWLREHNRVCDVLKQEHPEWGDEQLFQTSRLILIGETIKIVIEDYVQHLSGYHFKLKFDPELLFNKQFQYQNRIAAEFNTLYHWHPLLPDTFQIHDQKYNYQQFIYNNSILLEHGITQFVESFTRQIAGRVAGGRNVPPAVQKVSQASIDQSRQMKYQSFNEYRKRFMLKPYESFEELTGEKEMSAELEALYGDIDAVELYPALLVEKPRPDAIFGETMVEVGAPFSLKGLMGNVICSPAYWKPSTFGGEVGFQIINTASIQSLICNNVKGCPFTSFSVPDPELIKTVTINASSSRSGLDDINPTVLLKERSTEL

SMILES | IC50 [1] [µM] | IC50 [3] [µM] | EF (Apoptosis induction, Enrichment Factor) [2]
Cc1ccc(-c2cc(C(F)(F)F)nn2-c2ccc(S(N)(=O)=O)cc2)cc1 [Celecoxib, reference compound] | > 25 | – | + (EF < 3)
COc1ccc(-c2nc3nc(C)ccn3c2-c2ccc(SC)c(Cl)c2)cc1 [Example 125, 3-(3-Chloro-4-methylsulfanylphenyl)-2-(4-methoxyphenyl)-7-methylimidazo[1,2-a]pyrimidine] | 5 to 25 | – | +++ (EF > 6)
CSc1ccc(-c2nc3ncccn3c2-c2ccc(SC(C)C)c(Cl)c2)cc1 [Example 157, 3-(3-Chloro-4-isopropylsulfanylphenyl)-2-(4-methylsulfanylphenyl)imidazo[1,2-a]pyrimidine] | < 5 | > 25 | +++ (EF > 6)
COc1ccc(-c2nc3ncccn3c2-c2ccc([S+](C)[O-])c(Cl)c2)cc1 (stereo not drawn) [Example 189, 3-(3-Chloro-4-methanesulfinylphenyl)-2-(4-methoxyphenyl)imidazo[1,2-a]pyrimidine] | 5 to 25 | > 25 | +++ (EF > 6)
CSc1ccc(-c2c(-c3ccc(Cl)cc3)nc3ncccn23)cc1Cl [Example 238, 3-(3-Chloro-4-methylsulfanylphenyl)-2-(4-chlorophenyl)imidazo[1,2-a]pyrimidine] | < 5 | > 25 | +++ (EF > 6)
CSc1ccc(-c2c(-c3ccc(F)cc3)nc3ncccn23)cc1Cl [Example 240, 3-(3-Chloro-4-methylsulfanylphenyl)-2-(4-fluorophenyl)imidazo[1,2-a]pyrimidine] | 5 to 25 | > 25 | ++ (3 < EF < 6)
COc1ccc(-c2nc3ncccn3c2-c2ccc3c(c2)C(C)(C)CCS3)cc1 [Example 244, 3-(4,4-Dimethylthiochroman-6-yl)-2-(4-methoxyphenyl)imidazo[1,2-a]pyrimidine] | < 5 | > 25 | +++ (EF > 6)
CC1=C(CC(=O)O)c2cc(F)ccc2/C1=C\c1ccc(S(C)(=O)=O)cc1 [Exisulind, reference compound] | > 25 | > 25 | + (EF < 3)

Now from value to molecule, other results behind:

IC50 [1] [µM] | IC50 [3] [µM] | SMILES | EF (Apoptosis induction, Enrichment Factor) [2]
< 5 | 5 to 25 | COc1ccc(-c2nc3ncccn3c2-c2ccc(SC)cc2)cc1 [Example 8, 2-(4-Methoxyphenyl)-3-(4-methylsulfanylphenyl)imidazo[1,2-a]pyrimidine] | +++ (EF > 6)
< 5 | > 25 | CSc1ccc(-c2c(-c3ccc(Br)cc3)nc3ncccn23)cc1 [Example 13, 2-(4-Bromophenyl)-3-(4-methylsulfanylphenyl)imidazo[1,2-a]pyrimidine] | +++ (EF > 6)
< 5 | – | CSc1ccc(-c2nc3ncccn3c2-c2ccc(SC)c(Cl)c2)cc1 [Example 86, 3-(3-Chloro-4-methylsulfanylphenyl)-2-(4-methylsulfanylphenyl)imidazo[1,2-a]pyrimidine] | +++ (EF > 6)
< 5 | > 25 | COc1ccc(-c2nc3ncccn3c2-c2ccc(SC)c(Cl)c2)cc1 [Example 124, 3-(3-Chloro-4-methylsulfanylphenyl)-2-(4-methoxyphenyl)imidazo[1,2-a]pyrimidine] | +++ (EF > 6)
< 5 | > 25 | CSc1ccc(-c2c(-c3cccc(C)c3)nc3ncccn23)cc1Br [Example 132, 3-(3-Bromo-4-methylsulfanylphenyl)-2-m-tolylimidazo[1,2-a]pyrimidine] | +++ (EF > 6)
< 5 | > 25 | CSc1ccc(-c2c(-c3ccc(Cl)cc3)nc3ncccn23)cc1Br [Example 136, 3-(3-Bromo-4-methylsulfanylphenyl)-2-(4-chlorophenyl)imidazo[1,2-a]pyrimidine] | +++ (EF > 6)
< 5 | > 25 | COc1ccc(-c2nc3ncccn3c2-c2ccc(SC)c(C)c2)cc1 [Example 138, 2-(4-Methoxyphenyl)-3-(3-methyl-4-methylsulfanylphenyl)imidazo[1,2-a]pyrimidine] | +++ (EF > 6)
< 5 | > 25 | CCCSc1ccc(-c2c(-c3ccc(OC)cc3)nc3ncccn23)cc1Cl [Example 148, 3-(3-Chloro-4-propylsulfanylphenyl)-2-(4-methoxyphenyl)imidazo[1,2-a]pyrimidine] | +++ (EF > 6)
< 5 | > 25 | COc1ccc(-c2nc3ncccn3c2-c2ccc(SC(C)C)cc2)cc1 [Example 151, 3-(4-Isopropylsulfanylphenyl)-2-(4-methoxyphenyl)imidazo[1,2-a]pyrimidine] | +++ (EF > 6)
< 5 | > 25 | Cc1ccc(-c2nc3ncccn3c2-c2ccc(SC(C)C)c(Cl)c2)cc1 [Example 153, 3-(3-Chloro-4-isopropylsulfanylphenyl)-2-p-tolylimidazo[1,2-a]pyrimidine] | +++ (EF > 6)
